# According to patent US9365584B2, “Thieno [2,3-B] pyridinedione activators of AMPK and therapeutic uses thereof” (Poxel, priority 2009, dated 2016):
# Tested on: AMPK
# Test: AMPK enzyme activity assay (Delfia technology, AMARA peptide substrate)
# Format: biochemical
# Details: compound at 30 μM vs AMP at 200 μM
# Procedure, shortened: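 Value is the ratio of compound (30 μM) to AMP (200 μM) response, each as % of basal control. Phosphorylation of the AMARA peptide after AMPK addition was read by Delfia with an anti-phosphoserine antibody.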
row,Activity: Ratio between the % of control (basal activity) of compound of formula (1) at 30 μM and the % of control (basal activity) of AMP (natural substrate) at 200 μM,Compound
1,C (C≧75%),"O=C1Nc2scc(-c3ccc(F)cc3O)c2C(=O)C1(F)c1ccccc1 (stereo not shown) [No 25, 5-fluoro-3-(4-fluoro-2-hydroxy-phenyl)-5-phenyl-7H-thieno[2,3-b]pyridine-4,6-dione]"
2,A (0%<A<50%),"CC1(c2ccccc2F)C(=O)Nc2sc(Cl)c(-c3ccccc3)c2C1=O (stereo not shown) [No 28, 2-chloro-5-(2-fluorophenyl)-5-methyl-3-phenyl-7H-thieno[2,3-b]pyridine-4,6-dione]"
3,A (0%<A<50%),"COc1ccccc1-c1csc2c1C(=O)C(F)(c1ccccc1)C(=O)N2 (stereo not shown) [No 180, 5-fluoro-3-(2-methoxyphenyl)-5-phenyl-7H-thieno[2,3-b]pyridine-4,6-dione]"
4,C (C≧75%),"COc1ccccc1-c1c(Cl)sc2c1C(=O)C(C)(c1cccc(F)c1)C(=O)N2 (stereo not shown) [No 66, 2-chloro-5-(3-fluorophenyl)-3-(2-methoxyphenyl)-5-methyl-7H-thieno[2,3-b]pyridine-4,6-dione]"
5,A (0%<A<50%),"CCc1ccc(-c2csc3c2C(=O)C(C)(c2ccccc2)C(=O)N3)c(OC)c1 (stereo not shown) [No 16, 3-(4-ethyl-2-methoxy-phenyl)-5-methyl-5-phenyl-7H-thieno[2,3-b]pyridine-4,6-dione]"
6,A (0%<A<50%),"COc1c(-c2c(Cl)sc3c2C(=O)C(F)(c2ccccc2)C(=O)N3)ccc(C)c1F (stereo not shown) [No 230, 2-chloro-5-fluoro-3-(3-fluoro-2-methoxy-4-methyl-phenyl)-5-phenyl-7H-thieno[2,3-b]pyridine-4,6-dione]"
7,C (C≧75%),"O=C1Nc2sc(Cl)c(-c3ccc(F)cc3O)c2C(=O)C1(Cl)c1ccccc1 (stereo not shown) [No 216, 2,5-dichloro-3-(4-fluoro-2-hydroxy-phenyl)-5-phenyl-7H-thieno[2,3-b]pyridine-4,6-dione]"
8,C (C≧75%),"Cc1cccc(C2(F)C(=O)Nc3sc(Cl)c(-c4cccc(F)c4)c3C2=O)c1 (stereo not shown) [No 210, 2-chloro-5-fluoro-3-(3-fluorophenyl)-5-(m-tolyl)-7H-thieno[2,3-b]pyridine-4,6-dione]"
9,C (C≧75%),"Cc1ccc(-c2c(Cl)sc3c2C(=O)C(F)(c2ccc(F)cc2)C(=O)N3)c(O)c1F (stereo not shown) [No 228, 2-chloro-5-fluoro-3-(3-fluoro-2-hydroxy-4-methyl-phenyl)-5-(4-fluorophenyl)-7H-thieno[2,3-b]pyridine-4,6-dione]"
10,C (C≧75%),"COc1ccc(C2(F)C(=O)Nc3sc(F)c(-c4ccc(F)cc4)c3C2=O)cc1 (stereo not shown) [No 165, 2,5-difluoro-3-(4-fluorophenyl)-5-(4-methoxyphenyl)-7H-thieno[2,3-b]pyridine-4,6-dione]"
11,A (0%<A<50%),"Cc1ccccc1-c1c(Cl)sc2c1C(=O)C(C)(c1ccccc1F)C(=O)N2 (stereo not shown) [No 47, 2-chloro-5-(2-fluorophenyl)-5-methyl-3-(o-tolyl)-7H-thieno[2,3-b]pyridine-4,6-dione]"
12,A (0%<A<50%),"COc1ccc(-c2c(Cl)sc3c2C(=O)C(C)(c2ccccc2F)C(=O)N3)cc1 (stereo not shown) [No 153, 2-chloro-5-(2-fluorophenyl)-3-(4-methoxyphenyl)-5-methyl-7H-thieno[2,3-b]pyridine-4,6-dione]"
13,A (0%<A<50%),"CC1(c2cccc(F)c2)C(=O)Nc2sc(Cl)c(-c3ccc(F)cc3)c2C1=O (stereo not shown) [No 51, 2-chloro-5-(3-fluorophenyl)-3-(4-fluorophenyl)-5-methyl-7H-thieno[2,3-b]pyridine-4,6-dione]"
14,A (0%<A<50%),"CC1(c2ccc(F)cc2)C(=O)Nc2sc(Cl)c(-c3ccccc3F)c2C1=O (stereo not shown) [No 91, 2-chloro-3-(2-fluorophenyl)-5-(4-fluorophenyl)-5-methyl-7H-thieno[2,3-b]pyridine-4,6-dione]"
15,B (50%≦B<75%),"O=C1Nc2sc(Cl)c(-c3ccc(F)cc3O)c2C(=O)C1(F)c1ccccc1 (stereo not shown) [No 46, 2-chloro-5-fluoro-3-(4-fluoro-2-hydroxy-phenyl)-5-phenyl-7H-thieno[2,3-b]pyridine-4,6-dione]"
16,A (0%<A<50%),"CC1(c2ccc(S(C)(=O)=O)cc2)C(=O)Nc2sc(Cl)c(-c3ccc(F)cc3)c2C1=O (stereo not shown) [No 54, 2-chloro-3-(4-fluorophenyl)-5-methyl-5-(4-methyl-sulfonylphenyl)-7H-thieno[2,3-b]pyridine-4,6-dione]"
17,A (0%<A<50%),"COc1ccccc1-c1c(Cl)sc2c1C(=O)C(C)(c1ccc(S(C)(=O)=O)cc1)C(=O)N2 (stereo not shown) [No 141, 2-chloro-3-(2-methoxyphenyl)-5-methyl-5-(4-methyl-sulfonylphenyl)-7H-thieno[2,3-b]pyridine-4,6-dione]"
18,A (0%<A<50%),"Cc1cccc(-c2c(Cl)sc3c2C(=O)C(C)(c2ccccc2F)C(=O)N3)c1 (stereo not shown) [No 156, 2-chloro-5-(2-fluorophenyl)-5-methyl-3-(m-tolyl)-7H-thieno[2,3-b]pyridine-4,6-dione]"
19,A (0%<A<50%),"COc1ccc(-c2c(Cl)sc3c2C(=O)C(C)(c2cccc(OC)c2)C(=O)N3)cc1 (stereo not shown) [No 88, 2-chloro-5-(3-methoxyphenyl)-3-(4-methoxyphenyl)-5-methyl-7H-thieno[2,3-b]pyridine-4,6-dione]"
20,A (0%<A<50%),"Cc1ccc(C2(C)C(=O)Nc3sc(Cl)c(-c4ccccc4F)c3C2=O)cc1 (stereo not shown) [No 75, 2-chloro-3-(2-fluorophenyl)-5-methyl-5-(p-tolyl)-7H-thieno[2,3-b]pyridine-4,6-dione]"
21,A (0%<A<50%),"CCOc1ccc(C2(C)C(=O)Nc3scc(-c4ccc(Cl)cc4OC)c3C2=O)cc1 (stereo not shown) [No 21, 3-(4-chloro-2-methoxy-phenyl)-5-(4-ethoxyphenyl)-5-methyl-7H-thieno[2,3-b]pyridine-4,6-dione]"
22,A (0%<A<50%),"COc1ccc(C2(C)C(=O)Nc3sc(Cl)c(-c4ccc(C)cc4)c3C2=O)cc1 (stereo not shown) [No 150, 2-chloro-5-(4-methoxyphenyl)-5-methyl-3-(p-tolyl)-7H-thieno[2,3-b]pyridine-4,6-dione]"
23,A (0%<A<50%),"Cc1ccc(-c2csc3c2C(=O)C(C)(c2ccc(O)cc2)C(=O)N3)c(O)c1F (stereo not shown) [No 24, 3-(3-fluoro-2-hydroxy-4-methyl-phenyl)-5-(4-hydroxy-phenyl)-5-methyl-7H-thieno[2,3-b]pyridine-4,6-dione]"
24,C (C≧75%),"O=C1Nc2sc(F)c(-c3cccc(Br)c3)c2C(=O)C1(F)c1ccccc1 (stereo not shown) [No 164, 3-(3-bromophenyl)-2,5-difluoro-5-phenyl-7H-thieno[2,3-b]pyridine-4,6-dione]"
25,B (50%≦B<75%),"O=C1Nc2sc(Cl)c(-c3ccccc3Cl)c2C(=O)C1(F)c1ccccc1 (stereo not shown) [No 101, 2-chloro-3-(2-chlorophenyl)-5-fluoro-5-phenyl-7H-thieno[2,3-b]pyridine-4,6-dione]"
26,A (0%<A<50%),"COc1ccc(C2(C)C(=O)Nc3sc(Cl)c(-c4ccc(F)cc4O)c3C2=O)cc1 (stereo not shown) [No 15, 2-chloro-3-(4-fluoro-2-hydroxy-phenyl)-5-(4-methoxy-phenyl)-5-methyl-7H-thieno[2,3-b]pyridine-4,6-dione]"
27,C (C≧75%),"Cc1c(F)ccc(-c2c(Cl)sc3c2C(=O)C(F)(c2ccccc2)C(=O)N3)c1O (stereo not shown) [No 185, 2-chloro-5-fluoro-3-(4-fluoro-2-hydroxy-3-methyl-phenyl)-5-phenyl-7H-thieno[2,3-b]pyridine-4,6-dione]"
28,B (50%≦B<75%),"COc1cccc(-c2csc3c2C(=O)C(F)(c2ccccc2)C(=O)N3)c1 (stereo not shown) [No 205, 5-fluoro-3-(3-methoxyphenyl)-5-phenyl-7H-thieno[2,3-b]pyridine-4,6-dione]"
29,A (0%<A<50%),"COc1ccc(C2(C)C(=O)Nc3sc(Cl)c(-c4cccc(F)c4)c3C2=O)cc1 (stereo not shown) [No 146, 2-chloro-3-(3-fluorophenyl)-5-(4-methoxyphenyl)-5-methyl-7H-thieno[2,3-b]pyridine-4,6-dione]"
30,C (C≧75%),"COc1ccc(C2(F)C(=O)Nc3sc(Cl)c(-c4ccc(F)cc4O)c3C2=O)cc1 (stereo not shown) [No 169, 2-chloro-5-fluoro-3-(4-fluoro-2-hydroxy-phenyl)-5-(4-methoxyphenyl)-7H-thieno[2,3-b]pyridine-4,6-dione]"

row,Compound,Activity: Ratio between the % of control (basal activity) of compound of formula (1) at 30 μM and the % of control (basal activity) of AMP (natural substrate) at 200 μM
1,"2-chloro-5-methyl-3,5-bis(p-tolyl)-7H-thieno[2,3-b]pyridine-4,6-dione [No 154]",A (0%<A<50%)
